Measurements published in patent US8440830B2, “Tetrahydro-fused pyridines as histone deacetylase inhibitors” (4SC AG, priority 2007, dated 2013).
Where two headings read alike, the source gives them in different places.

Legend:
[1] = test system: RKO colon carcinoma cells with conditional p21^waf1 expression; test: Cell cycle dependent cytotoxicity, RKO exop21 cell system; assay type: cell-based; details: Homo sapiens, 72 h
Experimental: (§1) The anti-proliferative activity of the histone deacetylase inhibitory compounds as described herein, is evaluated using the following cell lines: HeLa and HeLa-KB (cervical carcinoma), H460 (non small cell lung cancer), A549 (non-small cell lung cancer), MCF7 (breast carcinoma), MCF10A (normal, non tumorigenic breast epithelial), MDA-MB468 (breast carcinoma), MDA-MB435 (breast carcinoma), MDA-MB231 (breast carcinoma), SKBR-3 (breast carcinoma), SKOV-3 (ovarial carcinoma), A-2780 (ovarial carcinoma), RKO (colon carcinoma), HCT-15 (colon carcinoma), HCT-116 (colon carcinoma), PC3 (prostate carcinoma), BPH1 (benign prostate hyperplasia), AsPC1 (pancreatic carcinoma), Ca127 (tongue carcinoma), A-431 (vulva carcinoma), Hec1A (endometrial carcinoma), Saos-2 (osteosarcoma), U87MG (glioblastoma), WM266-4 (melanoma), K562 (chronic myeloid leukemia), EOL1 (acute hypereosinophilic myeloid leukemia), CCRF-CEM and CCRF-CEM VCR1000 (acute lymphoblastic leukemia sensitive and resistant towards Vincristine). For quantification of cellular proliferation/living cells the Alamar Blue (Resazurin) cell viability assay is applied (O'Brien et al. Eur J Biochem 267, 5421-5426, 2000). In this assay Resazurin is reduced to the fluorescent resorufine by cellular dehydrogenase activity, correlating with viable, proliferating cells. The examples are dissolved as 20 mM solutions in dimethylsulfoxide (DMSO) and subsequently diluted in semi-logarithmic steps. Cell lines are seeded at respective density into 96 well flat bottom plates in a volume of 200 μl per well. 24 h after seeding 1 μl each of the compound dilutions are added into each well of the 96 well plate. Each compound dilution is tested as quadruplicates. Wells containing untreated control cells are filled with 200 μl DMEM medium containing 0.5% v:v DMSO. The cells are then incubated with the compounds for 72 h at 37° C. in a humidified atmosphere containing 5% carbon dioxide. To determine the viability of the cells, 20 μl of a Resazurin solution (Sigma; 90 mg/l) are added. After 4 h incubation at 37° C. the fluorescence is measured at an extinction of λ=544 nm and an emission of λ=590 nm. For the calculation of the cell viability the emission value from untreated cells is set as 100% viability and the emission rates of treated cells are set in relation to the values of untreated cells. Viabilities are expressed as % values. The corresponding IC50 values of the compounds for cytotoxic activity are determined from the concentration-effect curves by means of non-linear regression.
For determination of cell-cycle dependent cytotoxicity, the RKO exop21 cell system is applied (Schmidt et al. Oncogene 19: 2423-2429, 2000). Briefly, RKO cells with/without p21^waf1 expression (2×10^4 cells/well induced, 6×10^3 cells/well not induced) are treated with the compounds for 72 h and metabolic activity quantified as described before. The expression of p21^waf1 was induced by treatment with Pronasterone A, causing a complete proliferation arrest of RKO cells in the G1 and G2 phases of the cell division cycle.

[2] = test system: A549 NSCLC cells; test: Cellular cytotoxicity assay (Alamar Blue), A549; assay type: cell-based; details: Homo sapiens, 72 h, upper end given as ≧100, read-out: IC50 (μM), cytotoxicity towards A549 NSCLC cells
Summary of the method: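 Cells were dosed 24 h after seeding with semi-log compound dilutions in quadruplicate, then incubated 72 h at 37 °C, 5% CO2. Viability read by Resazurin reduction (4 h, fluorescence 544/590 nm) relative to untreated 0.5% DMSO controls; IC50 by non-linear regression.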

[3] = test system: fully transformed malignant cancer cell lines; test: Anti-proliferative activity, selection of cell lines (Alamar Blue); assay type: cell-based; details: Homo sapiens, 72 h, mean over cell lines, read-out: Mean IC50 values as calculated for fully malignant cancer cell lines
Experimental: as §1
The anti-proliferative activity of compounds from examples 1, 2, 3, 12 and 150 is evaluated by using a broad selection of non-malignant cell lines and fully transformed malignant cancer cell lines.

[4] = test system: histone H3 hyperacetylation in HeLa cervical carcinoma cells; test: Cellular histone H3 hyperacetylation assay; assay type: cell-based; details: Homo sapiens, 24 h treatment
Text: To assess the cellular efficacy of a histone deacetylase inhibitor in vitro, an assay is set up in black clear-bottom 96-well plates and optimized for use on the Cellomics “ArrayScan II” platform for a quantitative calculation of histone acetylation. The protocol uses a polyclonal rabbit antibody, specifically binding to acetylated lysine 1-20 (including K 9 and K14) of human histone H3 on fixed cells with an Alexa Fluor 488 labeled goat anti rabbit-IgG used for counterstaining 5×10^3 HeLa cervical carcinoma cells/well (ATCC CCL-2) in 200 μl Dulbecco's modified Eagle's medium (DMEM) containing 10% fetal calf serum are seeded at day 1 in Packard view plates and incubated for 24 h under standard cell culture conditions. On day 2, 1 μl test compound (200× final concentration) is added and incubation continued for further 24 h. On day 3, the culture medium is discarded and attached cells fixed for 15 min at room temperature by addition of 100 μl fixation buffer (3.7% v:v formaldehyde in phosphate buffered saline/PBS). After discarding the fixation buffer and one wash with blocking solution (1% BSA, 0.3% Tween 20 in PBS), cells are permeabilized at room temperature by addition of 100 μl /well permeabilization buffer (30.8 mM NaCl, 0.54 mM Na2HPO4, 0.31 mM KH2PO4, 0.1% v:v Triton X-100) for 15 min at room temperature. After discarding the permeabilization buffer and washing twice with 100 μl/well blocking solution at room temperature, the 1st antibody (anti-K1-20 histone H3 antibody, Calbiochem No. 382158) in blocking solution (50 μl/well) is added. After incubation for 1 h at room temperature, the wells are washed twice at room temperature with 100 μl/well blocking solution before addition of the 2nd antibody (goat-anti-rabbit Alexa Fluor 488; MoBiTec No. A -11008) in blocking solution (50 μl well). After further incubation for 1 h at room temperature, wells are washed twice with 100 μl/well blocking solution at room temperature. Finally, 100 μl/well PBS are added and image analysis performed on the Cellomics “ArrayScan II” platform. For EC50 determination, the percentage of positive cells showing nuclear fluorescence is determined and EC50 calculation done from concentration-effect curves by means of non-linear regression. For calibration, a positive (reference HDAC inhibitors like SAHA or NVP LBH-589) and a negative control were included.

[5] = biological target: T1, HDAC11 (Homo sapiens, UniProt Q96DB2); details: Kalita et al. 2005; one range for HDAC1, 2, 3 and 11; cited from earlier work
T1 sequence (Q96DB2 1-347): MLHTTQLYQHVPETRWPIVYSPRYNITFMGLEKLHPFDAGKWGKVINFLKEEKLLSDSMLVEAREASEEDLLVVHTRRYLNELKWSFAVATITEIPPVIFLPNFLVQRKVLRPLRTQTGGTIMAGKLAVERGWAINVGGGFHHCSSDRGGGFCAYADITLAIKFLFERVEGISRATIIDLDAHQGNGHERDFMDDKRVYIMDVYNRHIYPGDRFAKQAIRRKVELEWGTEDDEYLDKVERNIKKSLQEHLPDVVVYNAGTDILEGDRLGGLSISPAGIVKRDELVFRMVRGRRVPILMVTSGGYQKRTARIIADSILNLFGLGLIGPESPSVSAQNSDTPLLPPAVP

[6] = test system: HDACs 4 to 8; details: read-out: IC50 HDACs 4 to 8; Kalita et al. 2005; cited from earlier work
[7] = test system: acute human T-lymphoblastic leukemia cell line CCRF-CEM; details: about 10.000 unique accession numbers, Peart et al. 2005; cited from earlier work

For `Cc1ccc(S(=O)(=O)N2CCc3nc(C(=O)Nc4ccccc4N)sc3C2)cc1` [Example 150, N-(2-aminophenyl)-5-[(4-methylphenyl)sulfonyl]-4,5,6,7-tetrahydro[1,3]-thiazolo[5,4-c]pyridine-2-carboxamide], the IC50 ([1]; RKO arrested, p21^waf1 expressed, read-out: RKO arrested (p21^waf1 expressed) IC50) was 1100 to 4900 nM, the IC50 ([1]; RKO proliferating, p21^waf1 not induced, read-out: RKO proliferating IC50) was 1100 to 4000 nM and the IC50 [2] was at least 0.2 µM. The IC50 [3] was 2.4 to 5.4 µM, the EC50 ([4]; read-out: EC50, induction of histone H3 hyperacetylation) was 0.15 to 15 µM and the EC50 ([4]; read-out: −lg EC50, induction of histone H3 hyperacetylation) was 0.251 to 15.8 µM.
For `Nc1ccccc1NC(=O)c1ccc(CNc2nccc(-c3cccnc3)n2)cc1` [MGCD0103], the IC50 [5] is listed as 100 to 2000 nM and the IC50 [6] is listed as over 20 µM.
For `O=C(CCCCCCC(=O)Nc1ccccc1)NO` [SAHA, suberoylanilide hydroxamic acid], the “share of analyzed genes whose expression was changed” value [7] is given as 22.1%.
